These results are taken from paper PMC6385020 (Molecules, 2019).

The structures appear in SMILES notation.

For experiment [1], the system named is F-myc-T (DNA, G4) TGAGGGTGGGTAGGGTGGGTAA
Description: FRET-melting. The note with it: 1 mM KCl, 99 mM LiCl; 10 mM lithium cacodylate pH 7.3; 1 µM compound, 0.2 µM DNA.

The test system of experiment [2] is F-CEB25-WT-T (DNA, G4) AGGGTGGGTGTAAGTGTGGGTGGGT
Description: FRET-melting. The note with it: 1 mM KCl, 99 mM LiCl; 10 mM lithium cacodylate pH 7.3; 1 µM compound, 0.2 µM DNA.

The test system of experiment [3] is c-myc* (DNA, G4) TGAGGGTGGGTAGGGTGGGTAA
Description: denaturing gel electrophoresis, 3'-exonuclease digestion. The note with it: 100 mM KCl or KClO4; covalent; platination mainly A21/A22, also A12/G13; 18 h, 32 °C, 10 µM DNA.

For experiment [4], the system named is 22AG (DNA, G4) AGGGTTAGGGTTAGGGTTAGGG
Description: G4-FID, TO-PRO-3 displacement. The note with it: 100 mM KCl; 10 mM lithium cacodylate pH 7.3, 1% DMSO; TO-PRO-3 displaced; 1 µM compound, 0.25 µM DNA.

Experiment [5] has as its system CEB25-WT (DNA, G4) AAGGGTGGGTGTAAGTGTGGGTGGGT
The experiment is described as follows: G4-FID, TO-PRO-3 displacement. The note with it: 100 mM KCl; 10 mM lithium cacodylate pH 7.3, 1% DMSO; TO-PRO-3 displaced; 1 µM compound, 0.25 µM DNA.

As to `Cc1ccc(-c2cc(-c3ccccn3)nc(-c3ccccn3)c2)cc1.[Cl-].[Cl][Pt+]` [Pt-ttpy], the thermal shift (ΔTm) in experiment [1] and in experiment [2] was more than 10 °C throughout. Further, the binding entry in experiment [3] is given as “yes”.
Regarding `CN(C)c1ccc(/C=C/c2cc(-c3ccccn3)nc(-c3ccccn3)n2)cc1.[Cl-].[Cl][Pt+]` [Pt-vpym, Chloro-(E)-4-(2-(2,6-di(pyridin-2-yl)pyrimidin-4-yl)vinyl)-N,N-dimethylaniline-platinum(II) Chloride], the “% TO-PRO-3 displacement” value in experiment [4] and in experiment [5] was ~ 30% in each case.
